# From patent US20240251792A1, “WEED CONTROL METHOD” (SYNGENTA CROP PROTECTION AG, priority 2021, published 2024)
# Read-outs that look alike come from different tables or passages of the source.
# Experiments:
# Type in all cases: in vivo
# IPOHE = test: Pre-emergence biological efficacy (Table 3); settings: Ipomoea hederacea, 312 h, 1000 g/ha, after 13 days, read-out: evaluation (100=total damage to plant; 0=no damage to plant)
# Description: (§1) Seeds of weeds and/or crops were sown in standard soil in pots. After cultivation for one day under controlled conditions in a glasshouse (at 24/19° C., day/night; 16 hours light), the plants were sprayed with an aqueous spray solution derived from the formulation of the technical active ingredient in a small amount of acetone and a special solvent and emulsifier mixture referred to as AMA (11.12% Emulsogen EL360 TM+44.44% N-methylpyrrolidone+44.44% Dowanol DPM glycol ether), to create a 50 g/l solution which was then diluted using 0.2% Genapol X080 as diluent to give the desired final dose of test compound.
# (§2) The test plants were then grown under controlled conditions in the glasshouse (at 24/18° C., day/night; 15 hours light; 50% humidity) and watered twice daily. After 13 days the test was evaluated (100=total damage to plant; 0=no damage to plant).
# ECHCG = test: Pre-emergence biological efficacy (Table 3); settings: Echinochloa crus-galli, 312 h, 1000 g/ha, after 13 days, read-out: evaluation (100=total damage to plant; 0=no damage to plant)
# Description: as §1, §2
# ABUTH = test: Pre-emergence biological efficacy (Table 3); settings: Abutilon theophrasti, 312 h, after 13 days, read-out: evaluation (100=total damage to plant; 0=no damage to plant)
# Description: as §1, §2
# STEME = test: Pre-emergence biological efficacy (Table 3); settings: 312 h, after 13 days, read-out: evaluation (100=total damage to plant; 0=no damage to plant)
# Description: as §1, §2
# ZEAMX = test: Pre-emergence biological efficacy (Table 3); settings: 312 h, 1000 g/ha, after 13 days, read-out: evaluation (100=total damage to plant; 0=no damage to plant)
# Description: as §1, §2
# AMARE = test: Pre-emergence biological efficacy (Table 3); settings: Amaranthus retroflexus, 312 h, 1000 g/ha, after 13 days, read-out: evaluation (100=total damage to plant; 0=no damage to plant)
# Description: as §1, §2
# weeds and/or crops = test: Post-emergence biological efficacy (Table 4); settings: 312 h, 1000 g/ha, evaluated after 13 days
# Description: as §1, with “14 days” for “one day”, “F50” for “AMA”
# as §2
# [1] = STEME, read-out: damage to plant STEME (100=total damage; 0=no damage)
# [2] = ZEAMX, read-out: damage to plant ZEAMX (100=total damage; 0=no damage)
# [3] = Amaranthus retroflexus, AMARE, read-out: damage to plant AMARE (100=total damage; 0=no damage)
# [4] = Echinochloa crus-galli, ECHCG, read-out: damage to plant ECHCG (100=total damage; 0=no damage)
# [5] = Ipomoea hederacea, IPOHE, read-out: damage to plant IPOHE (100=total damage; 0=no damage)
# [6] = Abutilon theophrasti, ABUTH, read-out: damage to plant ABUTH (100=total damage; 0=no damage)
SMILES,pest or weed control at 1000 g/ha (IPOHE) [%],pest or weed control at 1000 g/ha (ECHCG) [%],pest or weed control at 1000 g/ha (ABUTH) [%],pest or weed control at 1000 g/ha (STEME) [%],plant injury at 1000 g/ha (ZEAMX) [%],pest or weed control at 1000 g/ha (AMARE) [%],pest or weed control at 1000 g/ha (weeds and/or crops; [1]) [%],pest or weed control at 1000 g/ha (weeds and/or crops; [2]) [%],pest or weed control at 1000 g/ha (weeds and/or crops; [3]) [%],pest or weed control at 1000 g/ha (weeds and/or crops; [4]) [%],pest or weed control at 1000 g/ha (weeds and/or crops; [5]) [%],pest or weed control at 1000 g/ha (weeds and/or crops; [6]) [%]
"O=C(O)C(F)(F)c1c(Cl)ccc2c1OC(F)(F)O2 [Compound 1-389, 2-(5-Chloro-2,2-difluorobenzo[d][1,3]dioxol-4-yl)-2,2-difluoroaceticacid]",60,10,50,60,10,60,50,0,80,10,70,–
"Nc1c(Cl)cc(Cl)c(Cl)c1C(F)(F)C(=O)O [Compound 1-81, 2-(2-Amino-3,5,6-trichloro-phenyl)-2,2-difluoro-acetic acid]",10,0,20,20,0,30,50,0,50,10,50,20
"O=C(O)C(F)(F)c1c(Cl)ccc2ccccc12 [Compound 1-401, 2-(2-chloronaphthalen-1-yl)-2,2-difluoroacetic acid]",50,30,60,80,0,80,80,10,70,–,80,80
"O=C(O)C(F)(F)c1cccc2cccc(Cl)c12 [Compound 1-416, 2-(8-chloro-1-naphthyl)-2,2-difluoro-acetic acid]",90,40,80,80,10,90,90,20,80,10,80,–
"COc1c(F)cccc1C(F)(F)C(=O)O [Compound 1-306, 2,2-Difluoro-2-(3-fluoro-2-methoxy-phenyl)acetic acid]",60,10,20,10,0,30,0,10,70,0,60,–
"COc1c(Cl)cccc1C(F)(F)C(=O)O [Compound 1-317, 2-(3-chloro-2-methoxy-phenyl)-2,2-difluoro-acetic acid]",90,90,100,100,70,90,100,60,100,60,90,–
